Measurements: US4863904A, “Dipeptides as renin inhibitors” (priority 1984, dated 1989)

System: common marmosets
Experiment: Depressive effect in marmosets (blood pressure of conscious marmosets in a high renin state)
Format: in vivo
Conditions: 100 mg/kg orally, conscious furosemide-treated common marmoset
Method: The experiment was carried out by using common marmosets as described in K. G. Hofbauer et al., Clinical and Experimental Hypertension-Theory and Practice, Vol A5, Nos 7 & 8 (1983), pages 1237-1247.
Furosemide was orally administered three times to common marmosets at 15 mg per kilogram per day every other day to create a high renin state. The operation was performed according to the method used by K. G. Hofbauer et al., and blood pressure of conscious marmosets was measured 2 days after the last administration of furosemide.
Male common marmosets weighing 350 g and 280 g were lightly anesthetized by Ketamine hydrochloride (Ketalar®, 10 to 20 mg/kg i.m.), and their femoral artery and vein was exposed. Catheters being filled with a heparin solution was subcutaneously inserted into the femoral vein and the femoral artery from the tail. After suturing of the opened part, the marmosets were placed on a heated mat. After complete recovery from the anesthesia, a dipeptide of the present invention (100 mg/kg) was orally administered through a soft catheter.
The arterial catheter was connected to a pressure transducer and blood pressure was recorded on the polygraph.

SMILES | Blood pressure (mm Hg) (60 min. after administration) | Blood pressure (mm Hg) (120 min. after administration) | Blood pressure (mm Hg) (180 min. after administration) | Blood pressure (mm Hg) (300 min. after administration) | Blood pressure (mm Hg) (420 min. after administration)
CC(C)C[C@@H](C=O)NC(=O)[C@H](Cc1c[nH]cn1)NC(=O)C(CC(=O)NCCc1ccccc1)Cc1cccc2ccccc12 (stereo partly drawn) [N-[2-(1-Naphthylmethyl)-3-(phenethylcarbamoyl)propionyl]-L-histidyl-L-leucinal] | 98.2 | 88.0 | 87.6 | 96.5 | 101.2
CC(C)C[C@@H](CO)NC(=O)[C@H](Cc1c[nH]cn1)NC(=O)C(CC(=O)NCCc1ccccc1)Cc1cccc2ccccc12 (stereo partly drawn) [N-[2-(1-Naphthylmethyl)-3-(phenethylcarbamoyl)propionyl]-L-histidyl-L-leucinol] | 97.7 | 89.5 | 95.3 | 97.4 | 99.0
